From patent US11833137B2, “Substituted chromenones, IRE1 inhibitors, and methods of using same” (The Wistar Institute, priority 2018, dated 2023)
“Also recorded” adds a separate entry of the source.

Columns and labels:
[1] = system: XBP-1s expression, 5TGM1 cells; experiment: XBP-1s immunoblot in 5TGM1 multiple myeloma cells; format: cell-based, mouse; details: for suppression of XBP-1s expression, long term: 10 μM for a course of 3 days
Protocol: 5TGM1 mouse multiple myeloma cells, primary mouse B cells, primary mouse Eμ-TCL1 CLL cells, and human CLL cell lines (MEC2 and WaC3) were cultured at 37° C. in a 5% CO2 incubator using RPMI 1640 media (Gibco) supplemented with 10% heat-inactivated FBS, 2 mM L-glutamine, 100 U/mL penicillin G sodium, 1 mM sodium pyruvate, 0.1 mM non-essential amino acids, 100 μg/mL streptomycin sulfate and 0.1 mM β-mercaptoethanol (β-ME).
(§1) Cells were lysed using RIPA buffer (10 mM Tris-HCl, pH 7.4, 150 mM NaCl, 1% NP-40, 0.5% sodium deoxycholate, 0.1% SDS, and 1 mM EDTA) supplemented with protease inhibitors (Roche). Protein concentrations were determined by BCA assays (Pierce).
(§2) Samples were boiled in SDS-PAGE sample buffer (62.5 mM Tris-HCl, pH 6.8, 2% SDS, 10% glycerol, 0.1% bromophenol blue) with β-ME and analyzed by SDS-PAGE. Proteins were transferred to nitrocellulose membranes, blocked in 5% nonfat milk (wt/vol in PBS), and immunoblotted with indicated primary antibodies and appropriate horseradish peroxidase-conjugated secondary antibodies. Immunoblots were developed using Western Lighting Chemiluminescence Reagent (PerkinElmer).
To develop inhibitors with improved potency to target the IRE1/XBP-1 pathway, tricyclic chromenone-based IRE1 RNase inhibitors with different amine group (R^1) were synthesized and compared: allyloxycarbonyl (alloc) in B-H09 (1), —H in C-B06 (2), and —CH3 in C-D06 (3) (FIG. 1A). 5TGM1 multiple myeloma cells were chosen to evaluate inhibitory effects of these inhibitors because they have constitutively activated IRE1/XBP-1 pathways.

[2] = system: XBP-1s expression, LPS-stimulated primary mouse B cells; experiment: XBP-1s immunoblot in LPS-stimulated primary B cells; format: cell-based; details: 2.5 or 5 μM for 2 h
Protocol: FIG. 8 illustrates chemical structures of 6, 4, 7, 8, and 9. Primary B cells purified from spleens of wild-type mice were stimulated with LPS for 72 h, subsequently treated with indicated inhibitors at 2.5 or 5 μM for 2 h, lysed, and analyzed for the expression of indicated proteins by immunoblots.
as §1, §2
LPS-stimulated primary mouse B cells were similarly treated with the same inhibitors at 2.5 or 5 μM for 2 h. […] HPLC degradation experiments confirmed that this was indeed the case (FIG. 2G).

[3] = Compound degradation HPLC assay; format: physicochemical; details: RPMI media, 37° C.
Protocol: A 20 mM DMSO stock solution of analyte compounds (7, 8, D-F07, PC-D-F07 and TC-D-F07) were diluted to 400 μM with PBS, pH 7.4, or to 800 μM with RMPI plus 10% FBS culture media (experiments with TC-D-F07 were performed using RPMI without FBS). After incubation at 37° C., aliquots at various time points were injected onto an analytical HPLC instrument and the peaks integrated (UV monitored at 220 nm). Intact compound relative to t=0 was plotted as a function of time.

[4] = Solubility in organic solvent (DMSO); format: physicochemical; details: such as DMSO

SMILES	inhibition of XBP-1s expression, short term ([1]; 2.5 μM for 1, 2 or 4 h)	suppression of XBP-1s expression, long term [1]	suppression of XBP-1s expression [2]	hydrolysis rate (HPLC degradation) [3]	solubility relative to 4 [4]
CC(=O)N/N=C/c1c(O)ccc2c3c(c(=O)oc12)CN(C)CC3 [Compound 8, (E)-N′-((8-hydroxy-3-methyl-5-oxo-1,3,4,5-tetrahydro-2H-chromeno[3,4-c]pyridin-7-yl)methylene)acetohydrazide]	rapidly inhibited XBP-1s; also recorded: effectively inhibit the expression of XBP-1s for longer than 4 h; also recorded: inhibited the expression of XBP-1s more rapidly than 7	lost its inhibitory effect after treatment for 2 days	rapidly suppressed the expression of XBP-1s	faster hydrolysis relative to 7	–
COc1cc2c3c(c(=O)oc2c(C2OCCCO2)c1O)CNCC3 [Compound 11, 7-(1,3-dioxan-2-yl)-8-hydroxy-9-methoxy-1,2,3,4-tetrahydro-5H-chromeno[3,4-c]pyridin-5-one]	–	more potent than 4 in suppressing XBP-1s expression; also recorded: less potent than D-F07 in suppressing the expression of XBP-1s	–	–	at least 16 times less soluble
